Six compounds from BindingDB's records for doi:10.1016/j.bmcl.2004.03.046 (Seoul National University, 2004) can be followed below.

This experiment concerns the target Tyrosinase (Agaricus bisporus). The experiment in a line: Inhibitory activity against mushroom tyrosinase.
`O=C(N[C@@H](Cc1ccccc1)C(=O)N[C@@H](Cc1c[nH]c2ccccc12)C(=O)N[C@@H](Cc1c[nH]c2ccccc12)C(=O)O)OCc1cc(=O)c(O)co1` [2-[(S)-2-[(S)-2-(5-Hydroxy-4-oxo-4H-pyran-2-ylmethoxycarbonylamino)-3-phenyl-propionylamino]-3-(1H-indol-3-yl)-propionylamino]-3-(1H-indol-3-yl)-propionic acid] yielded an IC50 of 6170 nM.

`CC[C@H](C)[C@H](NC(=O)[C@H](Cc1c[nH]c2ccccc12)NC(=O)[C@H](Cc1ccccc1)NC(=O)OCc1cc(=O)c(O)co1)C(=O)O` [2-[(S)-2-[(S)-2-(5-Hydroxy-4-oxo-4H-pyran-2-ylmethoxycarbonylamino)-3-phenyl-propionylamino]-3-(1H-indol-3-yl)-propionylamino]-3-(S)-methyl-pentanoic acid] displayed a half-inhibitory concentration (IC50) of 2180 nM.

Take `O=C(N[C@@H](Cc1ccccc1)C(=O)N[C@@H](Cc1c[nH]c2ccccc12)C(=O)N[C@@H](Cc1ccccc1)C(=O)O)OCc1cc(=O)c(O)co1` [2-[(S)-2-[(S)-2-(5-Hydroxy-4-oxo-4H-pyran-2-ylmethoxycarbonylamino)-3-phenyl-propionylamino]-3-(1H-indol-3-yl)-propionylamino]-3-phenyl-propionic acid]: the IC50 was 4480 nM.

With `O=C(O)C[C@H](NC(=O)[C@H](Cc1c[nH]c2ccccc12)NC(=O)[C@H](Cc1ccccc1)NC(=O)OCc1cc(=O)c(O)co1)C(=O)O` [2-[(S)-2-[(S)-2-(5-Hydroxy-4-oxo-4H-pyran-2-ylmethoxycarbonylamino)-3-phenyl-propionylamino]-3-(1H-indol-3-yl)-propionylamino]-succinic acid], the IC50 stood at 2130 nM. Compared with the last compound, the IC50 is about 2.1-fold lower.

Take `O=C(N[C@@H](Cc1ccccc1)C(=O)N[C@@H](Cc1ccc(O)cc1)C(=O)N[C@@H](Cc1ccc(O)cc1)C(=O)O)OCc1cc(=O)c(O)co1` [(S)-2-[(S)-2-[(S)-2-(5-Hydroxy-4-oxo-4H-pyran-2-ylmethoxycarbonylamino)-1-oxo-3-phenyl-propylamino]-3-(4-hydroxy-phenyl)-propionylamino]-3-(4-hydroxy-phenyl)-propionic acid]: the IC50 is 390 nM. Compared with the last compound, the IC50 is about 5.5-fold lower.

The compound `O=C(N[C@@H](Cc1ccccc1)C(=O)N[C@@H](Cc1ccccc1)C(=O)N[C@@H](Cc1ccc(O)cc1)C(=O)O)OCc1cc(=O)c(O)co1` [(S)-2-{(S)-2-[(S)-2-(5-Hydroxy-4-oxo-4H-pyran-2-ylmethoxycarbonylamino)-1-oxo-3-phenyl-propylamino]-3-phenyl-propionylamino}-3-(4-hydroxy-phenyl)-propionic acid] gave an IC50 of 330 nM. This IC50 and that of the compound before are within 1.5-fold of each other.

The IC50 is the midpoint of a concentration-inhibition curve. The low end stands for higher potency, the high end for lower potency.
